Read-outs that look alike come from different tables or passages of the source.
Legend:
[1] = biological target: T1, JAK2 (Homo sapiens, UniProt O60674); assay: Recombinant Human JAK2 Kinase Assay (TRF); format: biochemical; conditions: read-out: JAK2 Potency
T1 construct: host or cells: baculovirus expression system
Procedure, shortened: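 TRF read-out: Eu-N1 PY100 anti-phosphotyrosine antibody detects product. Enzyme is baculovirus-expressed JAK2 at 15 ng/ml; substrate is a biotinyl 15-mer peptide bound to Neutravidin-coated wells. Buffer 20 mM HEPES pH 7.2, 0.2 μM ATP, 1 mM MnCl2, 0.1% BSA, 2.5% DMSO final; 20 min, RT.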

[2] = biological target: T2, ALK (Homo sapiens, UniProt Q9UM73); assay: ALK Kinase Assay (ELISA/TRF, PLC-γ substrate); format: biochemical; conditions: read-out: ALK Potency
T2 construct: host or cells: baculovirus expression system
Procedure, shortened: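 PLC-γ coat 10 μg/mL in TBS; ALK 30 ng/ml added to start; 37° C, 15 min; Eu-N1 PT66 antibody detection (TRF). IC50: % inhibition vs log10 [cpd], variable-slope sigmoidal fit.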

[3] = JAK2 kinase inhibition, 0.2 μM ATP
[4] = ALK kinase inhibition, 1 μM ATP

T2 sequence (Q9UM73 19-1620): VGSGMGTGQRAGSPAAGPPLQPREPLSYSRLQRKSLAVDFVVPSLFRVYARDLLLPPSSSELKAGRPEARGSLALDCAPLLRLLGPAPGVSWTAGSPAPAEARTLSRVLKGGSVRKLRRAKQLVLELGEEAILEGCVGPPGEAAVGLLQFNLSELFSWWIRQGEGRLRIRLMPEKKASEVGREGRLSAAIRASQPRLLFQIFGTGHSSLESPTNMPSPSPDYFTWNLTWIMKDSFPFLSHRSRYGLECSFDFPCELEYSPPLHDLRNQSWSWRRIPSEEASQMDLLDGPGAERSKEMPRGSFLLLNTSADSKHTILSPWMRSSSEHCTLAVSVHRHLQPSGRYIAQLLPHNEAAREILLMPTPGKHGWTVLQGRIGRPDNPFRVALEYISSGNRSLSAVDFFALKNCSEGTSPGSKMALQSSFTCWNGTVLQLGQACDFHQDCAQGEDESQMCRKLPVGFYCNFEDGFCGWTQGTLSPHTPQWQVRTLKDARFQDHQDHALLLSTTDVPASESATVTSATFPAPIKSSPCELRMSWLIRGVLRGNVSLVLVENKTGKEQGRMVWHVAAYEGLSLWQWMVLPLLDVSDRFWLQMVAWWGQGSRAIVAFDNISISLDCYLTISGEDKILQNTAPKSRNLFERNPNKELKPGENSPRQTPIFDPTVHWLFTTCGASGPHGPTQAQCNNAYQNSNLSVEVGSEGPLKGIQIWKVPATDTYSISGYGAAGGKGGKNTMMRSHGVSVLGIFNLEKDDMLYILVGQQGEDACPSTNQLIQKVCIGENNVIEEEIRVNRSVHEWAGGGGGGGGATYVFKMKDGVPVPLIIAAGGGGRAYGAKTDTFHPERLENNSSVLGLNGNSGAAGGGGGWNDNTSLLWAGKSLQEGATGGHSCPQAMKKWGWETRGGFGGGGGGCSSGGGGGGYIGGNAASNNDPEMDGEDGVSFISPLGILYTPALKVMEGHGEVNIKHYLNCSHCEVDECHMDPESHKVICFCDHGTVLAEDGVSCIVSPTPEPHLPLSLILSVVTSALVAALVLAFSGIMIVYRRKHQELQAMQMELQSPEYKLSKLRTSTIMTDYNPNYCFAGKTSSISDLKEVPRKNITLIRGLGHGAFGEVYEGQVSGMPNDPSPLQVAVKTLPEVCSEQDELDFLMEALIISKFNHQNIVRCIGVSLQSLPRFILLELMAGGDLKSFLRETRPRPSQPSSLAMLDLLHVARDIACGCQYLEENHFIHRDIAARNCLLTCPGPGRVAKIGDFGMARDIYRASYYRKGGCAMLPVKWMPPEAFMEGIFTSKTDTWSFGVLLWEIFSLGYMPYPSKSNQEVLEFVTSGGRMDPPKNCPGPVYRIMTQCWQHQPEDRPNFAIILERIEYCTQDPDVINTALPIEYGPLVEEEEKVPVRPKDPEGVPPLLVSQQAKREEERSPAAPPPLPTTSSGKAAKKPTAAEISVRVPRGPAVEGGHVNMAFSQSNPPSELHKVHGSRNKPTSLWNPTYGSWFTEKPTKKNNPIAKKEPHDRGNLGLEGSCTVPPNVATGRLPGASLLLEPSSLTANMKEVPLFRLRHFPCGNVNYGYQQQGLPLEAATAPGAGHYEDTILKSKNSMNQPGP
T1 sequence (O60674 whole entry): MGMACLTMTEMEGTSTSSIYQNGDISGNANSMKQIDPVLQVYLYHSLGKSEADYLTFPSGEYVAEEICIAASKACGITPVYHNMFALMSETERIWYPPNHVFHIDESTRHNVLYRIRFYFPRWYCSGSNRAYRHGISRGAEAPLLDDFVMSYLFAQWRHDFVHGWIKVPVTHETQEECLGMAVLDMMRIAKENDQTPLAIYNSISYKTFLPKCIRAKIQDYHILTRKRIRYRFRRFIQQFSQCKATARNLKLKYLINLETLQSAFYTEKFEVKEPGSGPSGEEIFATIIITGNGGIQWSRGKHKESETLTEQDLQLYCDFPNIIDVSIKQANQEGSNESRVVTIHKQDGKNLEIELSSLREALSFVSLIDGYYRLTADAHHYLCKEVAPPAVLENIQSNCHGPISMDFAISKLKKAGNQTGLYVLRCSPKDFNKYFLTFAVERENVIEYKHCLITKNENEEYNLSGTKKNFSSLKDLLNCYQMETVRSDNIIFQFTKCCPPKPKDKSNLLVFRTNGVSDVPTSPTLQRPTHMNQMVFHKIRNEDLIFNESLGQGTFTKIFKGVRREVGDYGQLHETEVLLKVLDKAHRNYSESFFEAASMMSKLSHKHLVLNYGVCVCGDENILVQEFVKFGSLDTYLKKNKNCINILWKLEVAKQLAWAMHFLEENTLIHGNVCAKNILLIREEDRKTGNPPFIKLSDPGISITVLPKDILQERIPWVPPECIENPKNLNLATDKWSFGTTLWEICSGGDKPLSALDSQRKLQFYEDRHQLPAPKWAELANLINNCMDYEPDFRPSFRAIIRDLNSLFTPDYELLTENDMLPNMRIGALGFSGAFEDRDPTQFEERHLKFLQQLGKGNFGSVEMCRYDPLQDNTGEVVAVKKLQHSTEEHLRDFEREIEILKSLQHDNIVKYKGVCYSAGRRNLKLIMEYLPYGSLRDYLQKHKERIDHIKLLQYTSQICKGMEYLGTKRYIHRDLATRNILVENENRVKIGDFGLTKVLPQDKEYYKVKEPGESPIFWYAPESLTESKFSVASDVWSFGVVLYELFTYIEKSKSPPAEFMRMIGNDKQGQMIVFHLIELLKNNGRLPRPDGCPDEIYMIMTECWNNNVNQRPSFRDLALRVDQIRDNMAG

Row | Compound | IC50 ([1]; JAK2 Kinase Inhibition) | IC50 ([2]; ALK Kinase Inhibition) | IC50 [1, 3] | IC50 [2, 4]
1 | COc1cc(N2CCC(C(=O)N3CCN(C)CC3)CC2)ccc1Nc1ncc2ccc(-c3ccccc3OC)n2n1 [Example 458, (1-{3-Methoxy-4-[7-(2-methoxy-phenyl)-pyrrolo[2,1-f][1,2,4]triazin-2-ylamino]-phenyl}-piperidin-4-yl)-(4-methyl-piperazin-1-yl)-methanone] | 100 to 1000 nM | < 100 nM | – | –
2 | N-[2-(2-{4-[4-(2-Hydroxy-ethyl)-piperazin-1-yl]-phenylamino}-pyrrolo[2,1-f][1,2,4]triazin-7-yl)-phenyl]-N-methyl-methanesulfonamide [Example 1171] | – | – | < 100 nM | < 100 nM
3 | CC(=O)Nc1cc(Nc2ncc3ccc(-c4cccc(Cl)c4)n3n2)ccc1C(C)(C)C [Example 307, N-{2-tert-Butyl-5-[7-(3-chloro-phenyl)-pyrrolo[2,1-f][1,2,4]triazin-2-ylamino]-phenyl}-acetamide] | < 100 nM | > 10000 nM | – | –
4 | COc1cc(N2CCCC(N3CCN(C(C)=O)CC3)C2)ccc1Nc1ncc2ccc(-c3ccccc3OC)n2n1 (centres unmarked) [Example 232, 1-[4-(1-{3-Methoxy-4-[7-(2-methoxy-phenyl)-pyrrolo[2,1-f][1,2,4]triazin-2-ylamino]-phenyl}-piperidin-3-yl)-piperazin-1-yl]-ethanone] | < 100 nM | < 100 nM | – | –
5 | COc1ccccc1-c1ccc2cnc(Nc3ccc(N4CCCC(CN5CCN(C)CC5)C4)cc3)nn12 (centres unmarked) [Example 456, [7-(2-Methoxy-phenyl)-pyrrolo[2,1-f][1,2,4]triazin-2-yl]-{4-[3-(4-methyl-piperazin-1-ylmethyl)-piperidin-1-yl]-phenyl}-amine] | < 100 nM | < 100 nM | – | –
6 | N-{2-[2-(4-{4-[(2-Hydroxy-ethyl)-methyl-amino]-piperidin-1-yl}-2-ethoxy-phenylamino)-pyrrolo[2,1-f][1,2,4]triazin-7-yl]-phenyl}-N-methyl-methanesulfonamide [Example 795] | – | – | 100 to 1000 nM | < 100 nM
7 | COCCN1CCc2cc(Nc3ncc4ccc(-c5ccccc5OC)n4n3)c(OC)cc2CC1 [Example 48, [8-Methoxy-3-(2-methoxy-ethyl)-2,3,4,5-tetrahydro-1H-benzo[d]azepin-7-yl]-[7-(2-methoxy-phenyl)-pyrrolo[2,1-f][1,2,4]triazin-2-yl]-amine] | 100 to 1000 nM | < 100 nM | – | –
8 | CN1CCN(C(=O)c2cccc(Nc3ncc4ccc(-c5cccc(S(=O)(=O)NC(C)(C)C)c5)n4n3)c2)CC1 [Example 891, N-tert-Butyl-3-{2-[3-(4-methyl-piperazine-1-carbonyl)-phenylamino]-pyrrolo[2,1-f][1,2,4]triazin-7-yl}-benzenesulfonamide] | – | – | < 100 nM | 100 to 1000 nM
9 | CCN1CCN(C(=O)c2ccc(Nc3ncc4c(-c5ccc(F)cc5)ccn4n3)cc2)CC1 [Example 727, (4-Ethyl-piperazin-1-yl)-{4-[5-(4-fluoro-phenyl)-pyrrolo[2,1-f][1,2,4]triazin-2-ylamino]-phenyl}-methanone] | – | – | > 10000 nM | > 10000 nM
10 | COc1cc(-c2cccnc2)ccc1Nc1ncc2ccc(-c3ccccc3N(C)S(C)(=O)=O)n2n1 [Example 808, N-{2-[2-(2-Methoxy-4-pyridin-3-yl-phenylamino)-pyrrolo[2,1-f][1,2,4]triazin-7-yl]-phenyl}-N-methyl-methanesulfonamide] | – | – | > 10000 nM | 100 to 1000 nM
11 | OC(c1ccccc1)c1ccc2cnc(Nc3ccc(N4CCOCC4)cc3)nn12 (centres unmarked) [Example 383, [2-(4-Morpholin-4-yl-phenylamino)-pyrrolo[2,1-f][1,2,4]triazin-7-yl]-phenyl-methanol] | < 100 nM | 1000 to 10000 nM | – | –
12 | CN1CCN(c2ccc(Nc3ncc4ccc(-c5ccccc5Cl)n4n3)cc2)CC1 [Example 25, [7-(2-Chloro-phenyl)-pyrrolo[2,1-f][1,2,4]triazin-2-yl]-[4-(4-methyl-piperazin-1-yl)-phenyl]-amine] | < 100 nM | < 100 nM | – | –
13 | CCS(=O)(=O)Nc1cccc(-c2ccc3cnc(Nc4ccc(N5CCN(C)CC5)cc4)nn23)c1 [Example 415, Ethanesulfonic acid (3-{2-[4-(4-methyl-piperazin-1-yl)-phenylamino]-pyrrolo[2,1-f][1,2,4]triazin-7-yl}-phenyl)-amide] | < 100 nM | 100 to 1000 nM | – | –
14 | COc1cc(N2CCC[C@H](C(=O)N3CCN(C)CC3)C2)ccc1Nc1ncc2ccc(-c3ccccc3N(C)S(C)(=O)=O)n2n1 [Example 460, N-[2-(2-{2-Methoxy-4-[(S)-3-(4-methyl-piperazine-1-carbonyl)-piperidin-1-yl]-phenylamino}-pyrrolo[2,1-f][1,2,4]triazin-7-yl)-phenyl]-N-methyl-methanesulfonamide] | 100 to 1000 nM | < 100 nM | – | –
15 | COc1ccccc1-c1ccc2cnc(Nc3ccc4ncccc4c3)nn12 [Example 172, [7-(2-Methoxy-phenyl)-pyrrolo[2,1-f][1,2,4]triazin-2-yl]-quinolin-6-yl-amine] | < 100 nM | 1000 to 10000 nM | – | –
16 | NC(=O)CN1CCC(c2ccc(Nc3ncc4ccc(C5=CCNCC5)n4n3)cc2)CC1 [Example 664, 2-(4-{4-[7-(1,2,3,6-Tetrahydro-pyridin-4-yl)-pyrrolo[2,1-f][1,2,4]triazin-2-ylamino]-phenyl}-piperidin-1-yl)-acetamide] | – | – | < 100 nM | 100 to 1000 nM

The next lines start with the values.

Row | IC50 ([1]; JAK2 Kinase Inhibition) | IC50 ([2]; ALK Kinase Inhibition) | IC50 [1, 3] | IC50 [2, 4] | Compound
17 | – | – | < 100 nM | 1000 to 10000 nM | CS(=O)(=O)c1ccc(-c2ccc3cnc(Nc4ccc5[nH]c(=O)[nH]c5c4)nn23)cc1 [Example 1303, 5-[7-(4-Methanesulfonyl-phenyl)-pyrrolo[2,1-f][1,2,4]triazin-2-ylamino]-1,3-dihydro-benzimidazol-2-one]
18 | < 100 nM | 100 to 1000 nM | – | – | CN(c1ccccc1-c1ccc2cnc(Nc3ccc(CN4CCCC4)cc3)nn12)S(C)(=O)=O [Example 1428, N-Methyl-N-{2-[2-(4-pyrrolidin-1-ylmethyl-phenylamino)-pyrrolo[2,1-f][1,2,4]triazin-7-yl]-phenyl}-methane sulfonamide]
19 | – | – | 1000 to 10000 nM | < 100 nM | COc1cc(CN2CCN(C(=O)CN)CC2)ccc1Nc1ncc2ccc(-c3ccccc3N(C)S(C)(=O)=O)n2n1 [Example 1241, N-[2-(2-{4-[4-(2-Amino-acetyl)-piperazin-1-ylmethyl]-2-methoxy-phenylamino}-pyrrolo[2,1-f][1,2,4]triazin-7-yl)-phenyl]-N-methyl-methanesulfonamide]
20 | – | – | < 100 nM | 100 to 1000 nM | CN1CCN(c2ccc(Nc3ncc4ccc(-c5cccnc5F)n4n3)cc2)CC1 [Example 1041, [7-(2-Fluoro-pyridin-3-yl)-pyrrolo[2,1-f][1,2,4]triazin-2-yl]-[4-(4-methyl-piperazin-1-yl)-phenyl]-amine]
21 | – | – | < 100 nM | 100 to 1000 nM | C[C@H](O)CN1CCC(c2ccc(Nc3ncc4ccc(-c5cccc(N(C)S(C)(=O)=O)c5)n4n3)cc2)CC1 [Example 960, N-[3-(2-{4-[1-((S)-2-Hydroxy-propyl)-piperidin-4-yl]-phenylamino}-pyrrolo[2,1-f][1,2,4]triazin-7-yl)-phenyl]-N-methyl-methanesulfonamide]
22 | < 100 nM | 1000 to 10000 nM | – | – | COc1cccc(Nc2ncc3ccc(-c4cccc(S(=O)(=O)NC(C)(C)C)c4)n3n2)c1 [Example 1396, N-tert-Butyl-3-[2-(3-methoxy-phenylamino)-pyrrolo[2,1-f][1,2,4]triazin-7-yl]-benzenesulfonamide]
23 | – | – | < 100 nM | 1000 to 10000 nM | CS(=O)(=O)c1ccc(-c2ccc3cnc(Nc4ccc(-c5cccnc5)cc4)nn23)cc1 [Example 1089, [7-(4-Methanesulfonyl-phenyl)-pyrrolo[2,1-f][1,2,4]triazin-2-yl]-(4-pyridin-3-yl-phenyl)-amine]
24 | – | – | < 100 nM | 1000 to 10000 nM | c1c[nH]c(-c2ccc3cnc(Nc4ccc(N5CCOCC5)cc4)nn23)c1 [Example 1291, (4-Morpholin-4-yl-phenyl)-[7-(1H-pyrrol-2-yl)-pyrrolo[2,1-f][1,2,4]triazin-2-yl]-amine]
25 | – | – | < 100 nM | 100 to 1000 nM | CS(=O)(=O)Nc1cccc(-c2ccc3cnc(Nc4ccc(CN5CCS(=O)(=O)CC5)cc4)nn23)c1 [Example 1052, N-(3-{2-[4-(1,1-Dioxo-1 $1(6)-thiomorpholin-4-ylmethyl)-phenylamino]-pyrrolo[2,1-f][1,2,4]triazin-7-yl}-phenyl)-methanesulfonamide]
26 | – | – | < 100 nM | < 100 nM | N#CCCc1cccc(-c2ccc3cnc(Nc4ccc(N5CCC(N6CCOCC6)CC5)cc4)nn23)c1 [Example 1150, 3-(3-{2-[4-(4-Morpholin-4-yl-piperidin-1-yl)-phenylamino]-pyrrolo[2,1-f][1,2,4]triazin-7-yl}-phenyl)-propionitrile]
27 | < 100 nM | 100 to 1000 nM | – | – | CS(=O)(=O)c1cccc(-c2ccc3cnc(Nc4cccc(C5(O)CCNCC5)c4)nn23)c1 [Example 1552, 4-{3-[7-(3-Methanesulfonyl-phenyl)-pyrrolo[2,1-f][1,2,4]triazin-2-ylamino]-phenyl}-piperidin-4-ol]
28 | 100 to 1000 nM | < 100 nM | – | – | COc1cc(N2CCN(C3CCOCC3)CC2)ccc1Nc1ncc2ccc(-c3ccccc3N(C)S(C)(=O)=O)n2n1 [Example 1471, N-[2-(2-{2-Methoxy-4-[4-(tetrahydro-pyran-4-yl)-piperazin-1-yl]-phenylamino}-pyrrolo[2,1-f][1,2,4]triazin-7-yl)-phenyl]-N-methyl-methanesulfonamide]
